Data as given in patent US6310081A, “Biphenyl sulfonyl aryl carboxylic acids useful in the treatment of insulin resistance and hyperglycemia” (American Home Products Corporation, priority 2001, dated 2001).

Tests used:
diabetic (ob/ob) mice = assay: blood glucose lowering activity in diabetic (ob/ob) mice; type: in vivo, mouse (ob/ob, C57 B1/6J); settings: positive control, 100 mg/kg/day
Description: The procedures used and results obtained are briefly described below.
The no -insulin dependent diabetic (NIDDM) syndrome can be typically characterizes by obesity, hyperglycemia, abnormal insulin secretion, hyperinsulinemia and insulin resistance.
In each test procedure, mice [Male or female ob/ob (C57 B1/6J) and their lean litermates (ob/+ or +/+, Jackson Laboratories) ages 2 to 5 months (10 to 65 g)] of a similar age were randomized according to body weight into 4 groups of 10 mice. The mice were housed 5 per cage and are maintained on normal rodent chow with water ad libitum. Mice received test compound daily by gavage (suspended in 0.5 ml of 0.5% methyl cellulose); dissolved in the drinking water; or admixed in the diet. The dose of compounds given ranges from 2.5 to 200 mg/kg body weight/day. The dose is calculated based on the fed weekly body weight and is expressed as active moiety. […] Control mice received vehicle only.
On the morning of Day 4, 7 or 14 two drops of blood (approximetly 50 ul) were collected into sodium fluoride containing tubes either from the tail vein or after decapitation. […] The plasma was isolated by centrifugation and the concentration of glucose is measured enzymatically on an Abbott V.P. Analyzer.
For each mouse, the percentage change in plasma glucose on Day 4, 7 or 14 is calculated relative to the mean plasma glucose of the vehicle treated mice. […]

hPTP1B = target: T1, hPTP1B (Homo sapiens, UniProt P18031); assay: Inhibition of Tri-Phosphorylated Insulin Receptor Dodecaphosphopeptide Dephosphorylation by hPTP1B; type: biochemical
T1 construct: made in house
T1 sequence (P18031 1-435): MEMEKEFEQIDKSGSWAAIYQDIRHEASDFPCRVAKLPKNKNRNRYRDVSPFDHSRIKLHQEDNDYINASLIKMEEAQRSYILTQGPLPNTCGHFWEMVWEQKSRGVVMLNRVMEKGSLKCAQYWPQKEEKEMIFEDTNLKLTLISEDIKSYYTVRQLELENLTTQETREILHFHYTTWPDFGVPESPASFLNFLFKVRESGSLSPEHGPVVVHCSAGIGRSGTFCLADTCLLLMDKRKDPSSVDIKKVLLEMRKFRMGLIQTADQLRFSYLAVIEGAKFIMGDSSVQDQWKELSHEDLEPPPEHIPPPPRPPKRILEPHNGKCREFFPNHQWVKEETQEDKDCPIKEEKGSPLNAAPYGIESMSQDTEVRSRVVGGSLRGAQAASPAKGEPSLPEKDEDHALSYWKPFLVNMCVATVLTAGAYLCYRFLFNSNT

CC1(COc2ccc(CC3SC(=O)NC3=O)cc2)CCCCC1 (centres unmarked) [Ciglitazone, 5-(4-(1-methylcyclohexylmethoxy)benzyl)-2,4-dione]
plasma glucose lowering (in words) (diabetic (ob/ob) mice): significant lowering in plasma glucose

Cc1oc(-c2ccc(C(F)(F)F)cc2)nc1-c1ccc(-c2ccc(OS(=O)(=O)c3ccc(C(=O)O)c(O)c3)cc2)cc1 [Example 14]
IC50 (hPTP1B): 0.193 µM
